ChEMBL document CHEMBL1129258, “Synthesis and structure-activity relationships of 2-pyridones: a novel series of potent DNA gyrase inhibitors as antibacterial agents” (J Med Chem, 1996)
≈ marks a conversion by molar mass, not a printed value.

biological target: T1, DNA gyrase (Staphylococcus aureus) (UniProt P0A0K8+P20831); assay: In vitro antibacterial activity against gram-positive organism Staphylococcus aureus 1775; assay type: functional; settings: not given
T1 sequence (P0A0K8 2-644 limits assumed): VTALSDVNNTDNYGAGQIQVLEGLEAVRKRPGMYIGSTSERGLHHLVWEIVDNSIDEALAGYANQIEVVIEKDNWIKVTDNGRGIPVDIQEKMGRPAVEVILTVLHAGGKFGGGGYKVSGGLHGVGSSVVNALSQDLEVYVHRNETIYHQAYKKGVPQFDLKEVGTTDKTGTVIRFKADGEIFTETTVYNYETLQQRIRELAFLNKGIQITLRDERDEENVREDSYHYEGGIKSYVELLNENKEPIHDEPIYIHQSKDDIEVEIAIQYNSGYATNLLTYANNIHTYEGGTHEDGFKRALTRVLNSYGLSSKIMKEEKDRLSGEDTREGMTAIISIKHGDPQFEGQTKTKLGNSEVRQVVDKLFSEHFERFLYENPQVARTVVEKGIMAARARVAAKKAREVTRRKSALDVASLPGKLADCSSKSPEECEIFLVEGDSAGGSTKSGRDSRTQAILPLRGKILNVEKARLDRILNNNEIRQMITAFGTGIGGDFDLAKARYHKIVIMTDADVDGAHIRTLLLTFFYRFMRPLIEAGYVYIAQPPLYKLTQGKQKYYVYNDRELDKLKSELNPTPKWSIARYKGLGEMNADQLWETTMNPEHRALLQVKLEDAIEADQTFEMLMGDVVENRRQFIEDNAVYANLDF
T1 sequence (P20831 whole entry partner): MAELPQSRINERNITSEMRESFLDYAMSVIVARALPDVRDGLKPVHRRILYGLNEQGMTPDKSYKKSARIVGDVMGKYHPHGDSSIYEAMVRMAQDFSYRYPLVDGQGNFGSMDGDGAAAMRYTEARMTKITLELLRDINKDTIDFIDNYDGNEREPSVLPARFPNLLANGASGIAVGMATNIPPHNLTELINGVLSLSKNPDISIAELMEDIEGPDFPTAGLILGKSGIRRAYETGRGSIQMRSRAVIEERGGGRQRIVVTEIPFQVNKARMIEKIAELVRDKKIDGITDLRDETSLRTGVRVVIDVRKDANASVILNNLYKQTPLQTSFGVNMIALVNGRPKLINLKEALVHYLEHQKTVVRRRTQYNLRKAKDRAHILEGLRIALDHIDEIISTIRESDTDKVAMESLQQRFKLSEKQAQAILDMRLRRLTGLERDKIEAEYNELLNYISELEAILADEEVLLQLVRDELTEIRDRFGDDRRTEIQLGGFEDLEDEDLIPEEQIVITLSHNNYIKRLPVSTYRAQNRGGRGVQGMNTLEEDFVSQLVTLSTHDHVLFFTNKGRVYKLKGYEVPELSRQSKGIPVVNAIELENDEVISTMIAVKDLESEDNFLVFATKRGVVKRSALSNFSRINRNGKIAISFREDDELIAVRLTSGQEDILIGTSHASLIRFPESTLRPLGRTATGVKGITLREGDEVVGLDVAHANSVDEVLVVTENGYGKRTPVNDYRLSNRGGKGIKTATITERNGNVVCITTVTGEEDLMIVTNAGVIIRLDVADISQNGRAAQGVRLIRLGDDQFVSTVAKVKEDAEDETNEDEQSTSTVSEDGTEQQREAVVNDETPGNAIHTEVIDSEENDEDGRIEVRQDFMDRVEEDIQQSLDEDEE

Structure (SMILES)	MIC
COc1c(N2CCC(N)C2)c(F)cn2c(=O)c(C(=O)O)cc(C3CC3)c12 (stereo not given)	3.1 µg/mL (≈ 8.58 µM)
Cc1c(N2C[C@H]3CCC[C@H](N)[C@H]3C2)c(F)cn2c(=O)c(C(=O)O)cc(C3CC3)c12	0.39 µg/mL (≈ 0.976 µM)
Cc1c(N2C[C@@H](N)C[C@H]2C)c(F)cn2c(=O)c(C(=O)O)cc(C3CC3)c12	0.78 µg/mL (≈ 2.17 µM)
O=C(O)c1cc(-c2ccc(F)cc2F)c2nc(N3CCC(O)C3)c(F)cn2c1=O (stereo not given)	100 µg/mL (≈ 247 µM)
Cc1c(-n2ccnc2)c(F)cn2c(=O)c(C(=O)O)cc(C3CC3)c12	6.2 µg/mL (≈ 18.9 µM)
Cc1c(N2CCC(C)(N)C2)c(F)cn2c(=O)c(C(=O)O)cc(C3CC3)c12 (stereo not given)	1.56 µg/mL (≈ 4.34 µM)

biological target: T2, DNA gyrase (Escherichia coli) (UniProt P0AES6+P0AES4); settings: Escherichia coli K-12
Description: Concentration which causes 50% of the gyrase (Escherichia coli H560)-mediated maximal DNA cleavage.

Structure (SMILES)	CC50
COc1c(N2CCC(N)C2)c(F)cn2c(=O)c(C(=O)O)cc(C3CC3)c12 (stereo not given)	0.3 µg/mL (≈ 0.83 µM)
Cc1c(N2C[C@H]3CCC[C@H](N)[C@H]3C2)c(F)cn2c(=O)c(C(=O)O)cc(C3CC3)c12	0.3 µg/mL (≈ 0.751 µM)
O=C(O)c1cc(-c2ccc(F)cc2F)c2nc(N3CCC(O)C3)c(F)cn2c1=O (stereo not given)	0.5 µg/mL (≈ 1.23 µM)
Cc1c(-n2ccnc2)c(F)cn2c(=O)c(C(=O)O)cc(C3CC3)c12	0.3 µg/mL (≈ 0.917 µM)

system: Streptococcus pyogenes; assay: In vitro antibacterial activity against gram-positive organism Streptococcus pyogenes EES61; assay type: functional; settings: Streptococcus pyogenes; read-out: MIC

Structure (SMILES)	MIC
COc1c(N2CCC(N)C2)c(F)cn2c(=O)c(C(=O)O)cc(C3CC3)c12 (stereo not given)	0.2 µg/mL (≈ 0.553 µM)
Cc1c(N2C[C@H]3CCC[C@H](N)[C@H]3C2)c(F)cn2c(=O)c(C(=O)O)cc(C3CC3)c12	0.02 µg/mL (≈ 0.0501 µM)
Cc1c(N2C[C@@H](N)C[C@H]2C)c(F)cn2c(=O)c(C(=O)O)cc(C3CC3)c12	0.2 µg/mL (≈ 0.556 µM)
O=C(O)c1cc(-c2ccc(F)cc2F)c2nc(N3CCC(O)C3)c(F)cn2c1=O (stereo not given)	0.78 µg/mL (≈ 1.92 µM)
Cc1c(-n2ccnc2)c(F)cn2c(=O)c(C(=O)O)cc(C3CC3)c12	1.56 µg/mL (≈ 4.77 µM)
Cc1c(N2CCC(C)(N)C2)c(F)cn2c(=O)c(C(=O)O)cc(C3CC3)c12 (stereo not given)	0.1 µg/mL (≈ 0.278 µM)

biological target: T2, DNA gyrase (Escherichia coli); assay: In vitro antibacterial activity against gram-negative organism Prov. stuartii CMX-640; assay type: functional; settings: Providencia stuartii

Structure (SMILES)	MIC
COc1c(N2CCC(N)C2)c(F)cn2c(=O)c(C(=O)O)cc(C3CC3)c12 (stereo not given)	1.56 µg/mL (≈ 4.32 µM)
Cc1c(N2C[C@H]3CCC[C@H](N)[C@H]3C2)c(F)cn2c(=O)c(C(=O)O)cc(C3CC3)c12	0.78 µg/mL (≈ 1.95 µM)
Cc1c(N2C[C@@H](N)C[C@H]2C)c(F)cn2c(=O)c(C(=O)O)cc(C3CC3)c12	3.1 µg/mL (≈ 8.63 µM)
O=C(O)c1cc(-c2ccc(F)cc2F)c2nc(N3CCC(O)C3)c(F)cn2c1=O (stereo not given)	6.2 µg/mL (≈ 15.3 µM)
Cc1c(-n2ccnc2)c(F)cn2c(=O)c(C(=O)O)cc(C3CC3)c12	12.5 µg/mL (≈ 38.2 µM)
Cc1c(N2CCC(C)(N)C2)c(F)cn2c(=O)c(C(=O)O)cc(C3CC3)c12 (stereo not given)	0.78 µg/mL (≈ 2.17 µM)

biological target: T2, DNA gyrase (Escherichia coli); assay: In vitro antibacterial activity against gram-negative organism Klebsiella pneumoniae ATCC 8045; assay type: functional; settings: not given

Structure (SMILES)	MIC
COc1c(N2CCC(N)C2)c(F)cn2c(=O)c(C(=O)O)cc(C3CC3)c12 (stereo not given)	0.01 µg/mL (≈ 0.0277 µM)
Cc1c(N2C[C@H]3CCC[C@H](N)[C@H]3C2)c(F)cn2c(=O)c(C(=O)O)cc(C3CC3)c12	0.02 µg/mL (≈ 0.0501 µM)
Cc1c(N2C[C@@H](N)C[C@H]2C)c(F)cn2c(=O)c(C(=O)O)cc(C3CC3)c12	0.01 µg/mL (≈ 0.0278 µM)
O=C(O)c1cc(-c2ccc(F)cc2F)c2nc(N3CCC(O)C3)c(F)cn2c1=O (stereo not given)	0.05 µg/mL (≈ 0.123 µM)
Cc1c(-n2ccnc2)c(F)cn2c(=O)c(C(=O)O)cc(C3CC3)c12	0.2 µg/mL (≈ 0.611 µM)
Cc1c(N2CCC(C)(N)C2)c(F)cn2c(=O)c(C(=O)O)cc(C3CC3)c12 (stereo not given)	0.01 µg/mL (≈ 0.0278 µM)

biological target: T1, DNA gyrase (Staphylococcus aureus); assay: In vitro antibacterial activity against gram-positive organism Staphylococcus aureus ATCC 6538p; assay type: functional; settings: not given

Structure (SMILES)	MIC
COc1c(N2CCC(N)C2)c(F)cn2c(=O)c(C(=O)O)cc(C3CC3)c12 (stereo not given)	0.05 µg/mL (≈ 0.138 µM)
Cc1c(N2C[C@H]3CCC[C@H](N)[C@H]3C2)c(F)cn2c(=O)c(C(=O)O)cc(C3CC3)c12	0.005 µg/mL (≈ 0.0125 µM)
Cc1c(N2C[C@@H](N)C[C@H]2C)c(F)cn2c(=O)c(C(=O)O)cc(C3CC3)c12	0.01 µg/mL (≈ 0.0278 µM)
O=C(O)c1cc(-c2ccc(F)cc2F)c2nc(N3CCC(O)C3)c(F)cn2c1=O (stereo not given)	0.05 µg/mL (≈ 0.123 µM)
Cc1c(-n2ccnc2)c(F)cn2c(=O)c(C(=O)O)cc(C3CC3)c12	0.1 µg/mL (≈ 0.306 µM)
Cc1c(N2CCC(C)(N)C2)c(F)cn2c(=O)c(C(=O)O)cc(C3CC3)c12 (stereo not given)	0.02 µg/mL (≈ 0.0556 µM)

system: not listed separately; assay: In vitro antibacterial activity against gram-negative organism Pseudomonas aeruginosa 5007; assay type: functional; settings: not given

Structure (SMILES)	MIC
Cc1c(N2C[C@H]3CCC[C@H](N)[C@H]3C2)c(F)cn2c(=O)c(C(=O)O)cc(C3CC3)c12	0.39 pug ml-1

same assay, conditions: Pseudomonas aeruginosa; read-out: MIC

Structure (SMILES)	MIC
COc1c(N2CCC(N)C2)c(F)cn2c(=O)c(C(=O)O)cc(C3CC3)c12 (stereo not given)	0.39 µg/mL (≈ 1.08 µM)
Cc1c(N2C[C@@H](N)C[C@H]2C)c(F)cn2c(=O)c(C(=O)O)cc(C3CC3)c12	0.78 µg/mL (≈ 2.17 µM)
O=C(O)c1cc(-c2ccc(F)cc2F)c2nc(N3CCC(O)C3)c(F)cn2c1=O (stereo not given)	0.78 µg/mL (≈ 1.92 µM)
Cc1c(-n2ccnc2)c(F)cn2c(=O)c(C(=O)O)cc(C3CC3)c12	6.2 µg/mL (≈ 18.9 µM)
Cc1c(N2CCC(C)(N)C2)c(F)cn2c(=O)c(C(=O)O)cc(C3CC3)c12 (stereo not given)	0.2 µg/mL (≈ 0.556 µM)

biological target: T2, DNA gyrase (Escherichia coli); assay: In vitro antibacterial activity against gram-positive organism Streptococcus bovis A-5169; assay type: functional; settings: Streptococcus equinus

Structure (SMILES)	MIC
COc1c(N2CCC(N)C2)c(F)cn2c(=O)c(C(=O)O)cc(C3CC3)c12 (stereo not given)	0.39 µg/mL (≈ 1.08 µM)
Cc1c(N2C[C@H]3CCC[C@H](N)[C@H]3C2)c(F)cn2c(=O)c(C(=O)O)cc(C3CC3)c12	0.01 µg/mL (≈ 0.025 µM)
Cc1c(N2C[C@@H](N)C[C@H]2C)c(F)cn2c(=O)c(C(=O)O)cc(C3CC3)c12	0.1 µg/mL (≈ 0.278 µM)
O=C(O)c1cc(-c2ccc(F)cc2F)c2nc(N3CCC(O)C3)c(F)cn2c1=O (stereo not given)	6.2 µg/mL (≈ 15.3 µM)
Cc1c(N2CCC(C)(N)C2)c(F)cn2c(=O)c(C(=O)O)cc(C3CC3)c12 (stereo not given)	0.1 µg/mL (≈ 0.278 µM)

biological target: T1, DNA gyrase (Staphylococcus aureus); assay: In vitro antibacterial activity against gram-positive organism Staphylococcus aureus NCTC-10649M; assay type: functional; settings: not given

Structure (SMILES)	MIC
COc1c(N2CCC(N)C2)c(F)cn2c(=O)c(C(=O)O)cc(C3CC3)c12 (stereo not given)	0.05 µg/mL (≈ 0.138 µM)
Cc1c(N2C[C@H]3CCC[C@H](N)[C@H]3C2)c(F)cn2c(=O)c(C(=O)O)cc(C3CC3)c12	0.005 µg/mL (≈ 0.0125 µM)
Cc1c(N2C[C@@H](N)C[C@H]2C)c(F)cn2c(=O)c(C(=O)O)cc(C3CC3)c12	0.02 µg/mL (≈ 0.0556 µM)
O=C(O)c1cc(-c2ccc(F)cc2F)c2nc(N3CCC(O)C3)c(F)cn2c1=O (stereo not given)	0.05 µg/mL (≈ 0.123 µM)
Cc1c(-n2ccnc2)c(F)cn2c(=O)c(C(=O)O)cc(C3CC3)c12	0.2 µg/mL (≈ 0.611 µM)
Cc1c(N2CCC(C)(N)C2)c(F)cn2c(=O)c(C(=O)O)cc(C3CC3)c12 (stereo not given)	0.05 µg/mL (≈ 0.139 µM)

biological target: T2, DNA gyrase (Escherichia coli); assay: In vitro antibacterial activity against gram-positive organism Enterococcus faecium ATCC 8043; assay type: functional; settings: not given

Structure (SMILES)	MIC
COc1c(N2CCC(N)C2)c(F)cn2c(=O)c(C(=O)O)cc(C3CC3)c12 (stereo not given)	0.2 µg/mL (≈ 0.553 µM)
Cc1c(N2C[C@H]3CCC[C@H](N)[C@H]3C2)c(F)cn2c(=O)c(C(=O)O)cc(C3CC3)c12	0.02 µg/mL (≈ 0.0501 µM)
Cc1c(N2C[C@@H](N)C[C@H]2C)c(F)cn2c(=O)c(C(=O)O)cc(C3CC3)c12	0.05 µg/mL (≈ 0.139 µM)
O=C(O)c1cc(-c2ccc(F)cc2F)c2nc(N3CCC(O)C3)c(F)cn2c1=O (stereo not given)	0.78 µg/mL (≈ 1.92 µM)
Cc1c(-n2ccnc2)c(F)cn2c(=O)c(C(=O)O)cc(C3CC3)c12	0.39 µg/mL (≈ 1.19 µM)
Cc1c(N2CCC(C)(N)C2)c(F)cn2c(=O)c(C(=O)O)cc(C3CC3)c12 (stereo not given)	0.1 µg/mL (≈ 0.278 µM)

biological target: T2, DNA gyrase (Escherichia coli); assay: In vitro antibacterial activity against gram-negative organism […] ATCC 13048; assay type: functional; settings: Enterobacter aerogenes

Structure (SMILES)	MIC
COc1c(N2CCC(N)C2)c(F)cn2c(=O)c(C(=O)O)cc(C3CC3)c12 (stereo not given)	0.05 µg/mL (≈ 0.138 µM)
Cc1c(N2C[C@H]3CCC[C@H](N)[C@H]3C2)c(F)cn2c(=O)c(C(=O)O)cc(C3CC3)c12	0.1 µg/mL (≈ 0.25 µM)
Cc1c(N2C[C@@H](N)C[C@H]2C)c(F)cn2c(=O)c(C(=O)O)cc(C3CC3)c12	0.1 µg/mL (≈ 0.278 µM)
O=C(O)c1cc(-c2ccc(F)cc2F)c2nc(N3CCC(O)C3)c(F)cn2c1=O (stereo not given)	0.39 µg/mL (≈ 0.962 µM)
Cc1c(-n2ccnc2)c(F)cn2c(=O)c(C(=O)O)cc(C3CC3)c12	0.39 µg/mL (≈ 1.19 µM)
Cc1c(N2CCC(C)(N)C2)c(F)cn2c(=O)c(C(=O)O)cc(C3CC3)c12 (stereo not given)	0.05 µg/mL (≈ 0.139 µM)

system: not listed separately; assay: In vitro antibacterial activity against gram-negative organism Pseudomonas aeruginosa DPHD-2862; assay type: functional; settings: Pseudomonas aeruginosa; read-out: MIC

Structure (SMILES)	MIC
COc1c(N2CCC(N)C2)c(F)cn2c(=O)c(C(=O)O)cc(C3CC3)c12 (stereo not given)	3.1 µg/mL (≈ 8.58 µM)
Cc1c(N2C[C@H]3CCC[C@H](N)[C@H]3C2)c(F)cn2c(=O)c(C(=O)O)cc(C3CC3)c12	6.2 µg/mL (≈ 15.5 µM)
Cc1c(N2C[C@@H](N)C[C@H]2C)c(F)cn2c(=O)c(C(=O)O)cc(C3CC3)c12	3.1 µg/mL (≈ 8.63 µM)
O=C(O)c1cc(-c2ccc(F)cc2F)c2nc(N3CCC(O)C3)c(F)cn2c1=O (stereo not given)	> 100 µg/mL
Cc1c(-n2ccnc2)c(F)cn2c(=O)c(C(=O)O)cc(C3CC3)c12	> 100 µg/mL
Cc1c(N2CCC(C)(N)C2)c(F)cn2c(=O)c(C(=O)O)cc(C3CC3)c12 (stereo not given)	6.2 µg/mL (≈ 17.3 µM)

biological target: T2, DNA gyrase (Escherichia coli); assay: In vitro antibacterial against gram-negative organism Escherichia coli JUHL; assay type: functional; settings: Escherichia coli K-12

Structure (SMILES)	MIC
COc1c(N2CCC(N)C2)c(F)cn2c(=O)c(C(=O)O)cc(C3CC3)c12 (stereo not given)	0.02 µg/mL (≈ 0.0553 µM)
Cc1c(N2C[C@H]3CCC[C@H](N)[C@H]3C2)c(F)cn2c(=O)c(C(=O)O)cc(C3CC3)c12	0.02 µg/mL (≈ 0.0501 µM)
Cc1c(N2C[C@@H](N)C[C@H]2C)c(F)cn2c(=O)c(C(=O)O)cc(C3CC3)c12	0.1 µg/mL (≈ 0.278 µM)
O=C(O)c1cc(-c2ccc(F)cc2F)c2nc(N3CCC(O)C3)c(F)cn2c1=O (stereo not given)	0.1 µg/mL (≈ 0.247 µM)
Cc1c(-n2ccnc2)c(F)cn2c(=O)c(C(=O)O)cc(C3CC3)c12	0.39 µg/mL (≈ 1.19 µM)
Cc1c(N2CCC(C)(N)C2)c(F)cn2c(=O)c(C(=O)O)cc(C3CC3)c12 (stereo not given)	0.01 µg/mL (≈ 0.0278 µM)
